We go through one compound from article PMC11125126, “Synthesis, Characterisation, and In Vitro Evaluation of Biocompatibility, Antibacterial and Antitumor Activity of Imidazolium Ionic Liquids” (Pharmaceutics, 2024).

Read-outs that look alike come from different tables or passages of the source.

For one data set, the system named is Pseudomonas fluorescens. The data set can be described thus: MIC/MBC by broth dilution, pure ILs. It counts as cell-based. The note with it: 24 h; for MBC: read-out: MBC; for MIC: read-out: MIC. From the text: (§1) Within the Di3A (Dipartimento di Agricoltura, Alimentazione e Ambiente, University of Catania, Italy) microbial collection, two Gram-negative strains (Escherichia coli and Pseudomonas fluorescens) and one Gram-positive strain (Listeria monocytogenes) were studied in order to define the potential efficacy of ionic liquids in relation to the different structure of the bacterial cell wall.
(§2) For the pure ILs, the minimal inhibitory concentration (MIC) and minimal bactericidal concentration (MBC) were determined in Nutrient Broth (NB, Oxoid, Basingstoke, UK) medium by broth dilution method, according to the Clinical and Laboratory Standards Institute (CLSI).
All the bacterial strains were individually grown for 24 h at 35 or 27 °C for P. fluorescens, with shaking. After the incubation period, the cells were collected by centrifugation and re-suspended in sterile NB to obtain a stock culture of 10^9 CFU/mL. […]
(§3) Tubes were incubated at 35 or 27 °C in an orbital shaker and evaluated for the viable count of E. coli, P. fluorescens, and L. monocytogenes after 24 h by spread-plating 100 µL of each suspension on Nutrient Agar (NA, Oxoid, Basingstoke, UK) incubated for 24–48 h at 35 or 27 °C.
(§4) In this study, MIC and MBC are expressed in both µg/mL and µM to make the comparison with the literature data easy. Each experiment was performed in triplicate.
In general terms: Broth dilution looks for growth in wells or tubes with falling amounts of substance.

The test system of the next data set is Listeria monocytogenes. The data set can be described thus: MIC/MBC by broth dilution, pure ILs. Conditions: 24 h; for MBC: read-out: MBC; for MIC: read-out: MIC. The class given is cell-based.
From the text: as §1, §2
(§5) All the bacterial strains were individually grown for 24 h at 35 or 27 °C for P. fluorescens, with shaking. After the incubation period, the cells were collected by centrifugation and re-suspended in sterile NB to obtain a stock culture of 10^9 CFU/mL.
(§6) Tubes containing 5 mL of NB with decreasing concentrations of ILs (1000, 500, 250, 125, 50, 25, 12.5, 5 and 0 µg/mL) were inoculated with each bacterial stock culture at a final concentration of 10^6 CFU/mL.
as §3, §4

For a further data set, the system named is Escherichia coli. The data set can be described thus: MIC/MBC by broth dilution, pure ILs. It counts as cell-based. The note with it: 24 h; for MBC: read-out: MBC; for MIC: read-out: MIC.
From the text: as §1, §2, §5, §6, §3, §4

The test system of the next data set is HDF cells. The data set can be described thus: Indirect cytotoxic test (ISO 10993-5 elution) of IL-loaded PVC, Alamar blue. It counts as cell-based, human. Conditions: IL loaded into the PVC matrix at 0.5 and 1 wt%; 24 h elution, 24 h exposure. As for the experimental part:
Indirect test: ISO 10993-5, which provides test procedures to evaluate the in vitro cytotoxicity of medical devices, was employed to test biocompatibility. The elution test was conducted by incubating the material in a sterile DMEM solution (extraction vehicle prepared as described earlier) at a ratio of 0.1 g/1.0 mL at 37 °C (following ISO 10993-12 guidelines). After 24 h of elution time, the conditioned media (eluants) were collected, and 200 µL were pipetted into a 96-well plate previously seeded with HDF cells at 80% confluence. The plate was incubated for an additional 24 h (exposure time).
Cell viability was assessed in both cases using the Alamar blue assay, as described earlier. Furthermore, immunofluorescence microscopy was utilised to examine cell-material interactions and their spread using a fluorescent dye. Specifically, HDF cells were labelled with CellTracker^TM Red CMTPX (Invitrogen, Milan, Italy) in a 75 cm^2 cell culture flask, trypsinised, and then seeded onto IL-loaded polymer substrates. The cells were then incubated for 24 h at 37 °C. […]
To assess the possibility of developing substrates for use in various biomedical applications, from drug delivery to tissue engineering or as an antimicrobial coating, the biocompatibility of ionic-liquid-loaded polymeric substrates (ILs) was also evaluated using indirect and direct cytotoxicity assays. […]

Data set [1] in a line: Thermogravimetric analysis (TGA), thermal stability. The class given is physicochemical. Conditions: neat ILs; single-step degradation; 10 °C/min, nitrogen. On the procedure:
Thermal stability and kinetic parameters of the synthesised ILs were investigated using the TA instruments Q500 thermogravimetric analyser (Milan, Italy). A certain amount of sample (4–5 mg) was placed in a platinum pan and heated at 10 °C min^−1 from 40 to 600 °C under a flow of nitrogen (60 mL/min).
Thermogravimetric analyses were performed to evaluate the thermal stability of ILs and PVC/IL blends. Before testing, the samples were subjected to drying cycles in a vacuum stove for 24 h at 50–60 °C, according to the thermal features of ILs, mainly considering their melting points. The ILs C9mimBF4, C10mimBF4, C9mimDMSIP, and C10mimDMSIP, which are liquid at RT, were left to dry at 30 °C for 4–5 h. […] Considering this, the 40–600 °C degradation temperature range was adopted for the subsequent TGA analyses. […] Furthermore, platinum pans and nitrogen as purge gas were used, and the temperature at which 5% weight loss occurred was defined as Tonset, aiming to avoid the decomposition differences due to pan and gas types, as well as the uncertainty from the manual determination of the Tonset tangent point, respectively. Many features can influence the thermal stability of ILs, mainly the coordinating nature of the anion. Indeed, the highly coordinating halide anions (Cl, Br) display a thermal stability lower than that of poor coordinating anions (PF6). The type of cation core influences the thermal stability of ILs, with a decreasing temperature resistance in the following order: pyrrolidinium, imidazolium, pyridinium, and non-cyclic tetra-alkyl ammonium. The increasing alkyl chain length of the imidazolium cation and branching of the alkyl substituents induce a reduction in thermal stability. Furthermore, a decrease in thermal stability is determined by the presence of alkoxylated side chains in methylimidazolium, piperidinium, and pyrrolidinium cations.
As the industrial production of end products usually involves processing methodologies during which undesirable degradation processes could affect materials’ performance, the thermal stability of neat PVC and PVC/IL film blends was analysed. As detailed for TGA analyses of pure ILs, the stability of the PVC/IL blends was determined at heating runs of 10 °C/min from 40 to 600 °C under a nitrogen atmosphere using a platinum pan. These things considered, the temperature at 5% weight loss was considered as Tonset.

The mark [2] stands for this setting: NI = no inhibition at IL maximum concentration used (1000 µM).

By MBC is commonly meant the smallest concentration meeting the test's criterion for killing. The MIC is the lowest concentration found to suppress growth. For the compound `CCCCCCCCCCn1cc[n+](C)c1.F[B-](F)(F)F` [C10mimBF4], the MBC with Pseudomonas fluorescens (10^6 CFU/mL) was 155 µg/mL; in the data set on Pseudomonas fluorescens (setting [2]), 500 µM; in the data set with Listeria monocytogenes (10^6 CFU/mL), 155 µg/mL; in the data set on Listeria monocytogenes (setting [2]), 500 µM; with Escherichia coli (10^6 CFU/mL), 155 µg/mL; in the data set on Escherichia coli (setting [2]), 500 µM. Further, the MIC with Pseudomonas fluorescens (10^6 CFU/mL) was found to be 38.8 µg/mL; with Pseudomonas fluorescens (setting [2]), 125 µM; in the data set on Listeria monocytogenes (10^6 CFU/mL) it was 77.5 µg/mL; in the data set on Listeria monocytogenes (setting [2]) it was 250 µM; in the data set on Escherichia coli (10^6 CFU/mL) it was 77.5 µg/mL; with Escherichia coli (setting [2]), 250 µM. The “HDF cell viability, indirect cytotoxic test” value in the data set on HDF cells was “good cell survival”. For the same compound, in data set [1], the “Td, maximum degradation temperature” value was determined as 417.2 °C.
